Results published in EP2201949A1 (World Trade Import-Export, WTIE A.G., priority 2007, dated 2009).

How the values were obtained:
gout arthritis = type: in vivo, female Wistar rats; conditions: for Global anti-inflammatory and analgesic activity expressed in CT AUC: through 5 hours of assessment; for effect of used dose on walking capability / relaxation of the animals: rat, in vivo
Excerpt: PIFIR experimental model is a preclinical model wherein gout arthritis is possible to be determined in a rodent and the anti-inflammatory and analgesic efficacy of several drugs in animals with this alteration is compared. This experimental model has some important advantages regarding other preclinical methodologies: a) an alteration which clinically affects to humans is established in the rodent: gout type arthritis; b) temporary course of anti-inflammatory and analgesic effect may be determined along […] in the same experimental subject, without producing rodent conditioning factor or learning, being this a significant disadvantage in other experimental models; c) less test drug is consumed compared with other experimental models; d) anti-inflammatory and analgesic effect assessment is performed by computer and not depending on sometimes subjective observations.
Experiments were performed by using female Wistar rats having a weight of about 180 to 200 g. Animals were kept in a room with alternate light/darkness cycles. Food was withdrawn from rats twelve hours before experimentation, with water ad-libitum. All experiments were carried out during light time, the animals being used only once.
Animals were anesthesized in a glass desiccator saturated with […]. Gout arthritis was induced by applying a 0.05 ml intra-articular uric acid injection suspended in mineral oil in the right anterior limb, exactly on the femoral-tibio-rotular joint. A 1 ml glass syringe was used for intra-articular injection with a No. 22 4 mm long needle. An electrode was fixed immediately later in every anterior leg between the plantar calluses. Rats were left to recover from anesthesia and they were enclosed in a 30 cm diameter stainless steel rotary cylinder. Cylinder was rotated at 4 rpm, forcing to the rats to walk during 2 min every half hour, during 5 hours after total dysfunction.
Contact time was the measured variable at every anterior leg from the rats in the cylinder. When electrode is in contact with the cylinder a circuit is closed and the contact time ratio between injured to uninjured legs was registered in a computer.
Temporary courses for every treatment were determined during 5 continuous hours, using a "n" of 6 rats per treatment.

[1] = cited from earlier work
[2] = each compound 177.8 mg/kg, alone or combined
[3] = after being orally administered

Compound | Global anti-inflammatory and analgesic activity expressed in CT AUC (gout arthritis; [2]) | time of maximum effect after delivery (gout arthritis; each compound 177.8 mg/kg, single dose, alone or combined, CT over 5 hours) | Maximum effect (anti-inflammatory and analgesic effect) (gout arthritis; each compound 177.8 mg/kg, single dose, alone or combined, temporary course (CT) over 5 hours, n = 6 rats) | effect of used dose on walking capability / relaxation of the animals (gout arthritis) | beginning of pharmacological action [1, 3] | total therapeutic action duration [1, 3] | half-life ([1]; in vivo)
C[C@H]1C[C@H]2[C@@H]3CCC4=CC(=O)C=C[C@]4(C)[C@@]3(F)[C@@H](O)C[C@]2(C)[C@@]1(O)C(=O)CO [Betamethasone] | 31.6 ± 10.8 ua | 4.5 h | 24.0 ± 11.9% | did not affect the walking rat capability | – | – | –
COc1ccccc1OCC(O)COC(N)=O (stereo not drawn) [Methocarbamol] | 48.8 ± 21.0 ua | – | – | slight relaxation effect | ≤ 30 minutes | about 24 hours | about 14 hours
